Measurements as given in PubChem BioAssay (NCI).
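Step 1: Grow cells in 96-well plates. Step 2: Expose to compound for 48 hours at 5 concentrations. Step 3: Interpolate endpoints linearly; if unreached, use highest concentration. GI50: concentration for 50% inhibition of growth. At the TGI there is no net growth.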

Key:
Test in all cases: inhibition of tumour cell growth, NCI panel, 48 h
786-0 renal = tested on: 786-0 renal
A498 renal = tested on: A498 renal
A549 NSCLC = tested on: A549 NSCLC
ACHN renal = tested on: ACHN renal
BT-549 breast = tested on: BT-549 breast
CAKI-1 renal = tested on: CAKI-1 renal
CCRF-CEM leukemia = tested on: CCRF-CEM leukemia
COLO 205 colon = tested on: COLO 205 colon
DU-145 prostate = tested on: DU-145 prostate
EKVX NSCLC = tested on: EKVX NSCLC
HCC-2998 colon = tested on: HCC-2998 colon
HCT-116 colon = tested on: HCT-116 colon
HCT-15 colon = tested on: HCT-15 colon
HL-60(TB) leukemia = tested on: HL-60(TB) leukemia
HOP-62 NSCLC = tested on: HOP-62 NSCLC
HOP-92 NSCLC = tested on: HOP-92 NSCLC
HS 578T breast = tested on: HS 578T breast
HT29 colon = tested on: HT29 colon
IGROV1 ovarian = tested on: IGROV1 ovarian
K-562 leukemia = tested on: K-562 leukemia
KM12 colon = tested on: KM12 colon
LOX IMVI melanoma = tested on: LOX IMVI melanoma
M14 melanoma = tested on: M14 melanoma
MALME-3M melanoma = tested on: MALME-3M melanoma
MCF7 breast = tested on: MCF7 breast
MDA-MB-231 breast = tested on: MDA-MB-231 breast
MDA-MB-435 = tested on: MDA-MB-435
MOLT-4 leukemia = tested on: MOLT-4 leukemia
NCI-H23 lung = tested on: NCI-H23 lung
NCI-H460 lung = tested on: NCI-H460 lung
NCI-H522 lung = tested on: NCI-H522 lung
NCI/ADR-RES ovarian = tested on: NCI/ADR-RES ovarian
OVCAR-3 ovarian = tested on: OVCAR-3 ovarian
OVCAR-4 ovarian = tested on: OVCAR-4 ovarian
OVCAR-5 ovarian = tested on: OVCAR-5 ovarian
OVCAR-8 ovarian = tested on: OVCAR-8 ovarian
PC-3 prostate = tested on: PC-3 prostate
RPMI-8226 leukemia = tested on: RPMI-8226 leukemia
RXF 393 renal = tested on: RXF 393 renal
SF-268 CNS = tested on: SF-268 CNS
SF-295 CNS = tested on: SF-295 CNS
SF-539 CNS = tested on: SF-539 CNS
SK-MEL-2 melanoma = tested on: SK-MEL-2 melanoma
SK-MEL-28 melanoma = tested on: SK-MEL-28 melanoma
SK-MEL-5 melanoma = tested on: SK-MEL-5 melanoma
SK-OV-3 ovarian = tested on: SK-OV-3 ovarian
SN12C renal = tested on: SN12C renal
SNB-19 CNS = tested on: SNB-19 CNS
SNB-75 CNS = tested on: SNB-75 CNS
SR leukemia = tested on: SR leukemia
SW-620 colon = tested on: SW-620 colon
T-47D breast = tested on: T-47D breast
TK-10 renal = tested on: TK-10 renal
U251 CNS = tested on: U251 CNS
UACC-257 melanoma = tested on: UACC-257 melanoma
UACC-62 melanoma = tested on: UACC-62 melanoma
UO-31 renal = tested on: UO-31 renal

SMILES: c1ccc2cc(-c3n(Cc4ccc5ccccc5n4)c4ccccc4[n+]3Cc3ccc4ccccc4n3)ccc2c1
- GI50 (786-0 renal): 392 nM
- TGI (786-0 renal): 1720 nM
- GI50 (A498 renal): 121 nM
- TGI (A498 renal): 801 nM
- GI50 (A549 NSCLC): 349 nM
- TGI (A549 NSCLC): 1510 nM
- GI50 (ACHN renal): 717 nM
- TGI (ACHN renal): 1950 nM
- GI50 (BT-549 breast): 316 nM
- TGI (BT-549 breast): 1250 nM
- GI50 (CAKI-1 renal): 655 nM
- TGI (CAKI-1 renal): 2000 nM
- GI50 (CCRF-CEM leukemia): 333 nM
- TGI (CCRF-CEM leukemia): 1670 nM
- GI50 (COLO 205 colon): 171 nM
- TGI (COLO 205 colon): 346 nM
- GI50 (DU-145 prostate): 395 nM
- TGI (DU-145 prostate): 1650 nM
- GI50 (EKVX NSCLC): 517 nM
- TGI (EKVX NSCLC): 2080 nM
- GI50 (HCC-2998 colon): 344 nM
- TGI (HCC-2998 colon): 1460 nM
- GI50 (HCT-116 colon): 272 nM
- TGI (HCT-116 colon): 1120 nM
- GI50 (HCT-15 colon): 1600 nM
- TGI (HCT-15 colon): 3180 nM
- GI50 (HL-60(TB) leukemia): 152 nM
- TGI (HL-60(TB) leukemia): 462 nM
- GI50 (HOP-62 NSCLC): 363 nM
- TGI (HOP-62 NSCLC): 1490 nM
- GI50 (HOP-92 NSCLC): 136 nM
- TGI (HOP-92 NSCLC): 517 nM
- GI50 (HS 578T breast): 343 nM
- TGI (HS 578T breast): 1700 nM
- GI50 (HT29 colon): 256 nM
- TGI (HT29 colon): 1190 nM
- GI50 (IGROV1 ovarian): 290 nM
- TGI (IGROV1 ovarian): 1280 nM
- GI50 (K-562 leukemia): 160 nM
- TGI (K-562 leukemia): 1390 nM
- GI50 (KM12 colon): 321 nM
- TGI (KM12 colon): 1210 nM
- GI50 (LOX IMVI melanoma): 259 nM
- TGI (LOX IMVI melanoma): 837 nM
- GI50 (M14 melanoma): 307 nM
- TGI (M14 melanoma): 1530 nM
- GI50 (MALME-3M melanoma): 379 nM
- TGI (MALME-3M melanoma): 1690 nM
- GI50 (MCF7 breast): 277 nM
- TGI (MCF7 breast): 1140 nM
- GI50 (MDA-MB-231 breast): 307 nM
- TGI (MDA-MB-231 breast): 1320 nM
- GI50 (MDA-MB-435): 369 nM
- TGI (MDA-MB-435): 1350 nM
- GI50 (MOLT-4 leukemia): 348 nM
- TGI (MOLT-4 leukemia): 1400 nM
- GI50 (NCI-H23 lung): 285 nM
- TGI (NCI-H23 lung): 1090 nM
- GI50 (NCI-H460 lung): 361 nM
- TGI (NCI-H460 lung): 1310 nM
- GI50 (NCI-H522 lung): 321 nM
- TGI (NCI-H522 lung): 1250 nM
- GI50 (NCI/ADR-RES ovarian): 6600 nM
- TGI (NCI/ADR-RES ovarian): 26400 nM
- GI50 (OVCAR-3 ovarian): 314 nM
- TGI (OVCAR-3 ovarian): 1390 nM
- GI50 (OVCAR-4 ovarian): 255 nM
- TGI (OVCAR-4 ovarian): 1130 nM
- GI50 (OVCAR-5 ovarian): 368 nM
- TGI (OVCAR-5 ovarian): 1470 nM
- GI50 (OVCAR-8 ovarian): 297 nM
- TGI (OVCAR-8 ovarian): 1220 nM
- GI50 (PC-3 prostate): 184 nM
- TGI (PC-3 prostate): 1120 nM
- GI50 (RPMI-8226 leukemia): 80.2 nM
- TGI (RPMI-8226 leukemia): 520 nM
- GI50 (RXF 393 renal): 245 nM
- TGI (RXF 393 renal): 1240 nM
- GI50 (SF-268 CNS): 332 nM
- TGI (SF-268 CNS): 1420 nM
- GI50 (SF-295 CNS): 301 nM
- TGI (SF-295 CNS): 1090 nM
- GI50 (SF-539 CNS): 390 nM
- TGI (SF-539 CNS): 1430 nM
- GI50 (SK-MEL-2 melanoma): 283 nM
- TGI (SK-MEL-2 melanoma): 1010 nM
- GI50 (SK-MEL-28 melanoma): 423 nM
- TGI (SK-MEL-28 melanoma): 1650 nM
- GI50 (SK-MEL-5 melanoma): 201 nM
- TGI (SK-MEL-5 melanoma): 422 nM
- GI50 (SK-OV-3 ovarian): 268 nM
- TGI (SK-OV-3 ovarian): 912 nM
- GI50 (SN12C renal): 298 nM
- TGI (SN12C renal): 1110 nM
- GI50 (SNB-19 CNS): 315 nM
- TGI (SNB-19 CNS): 1320 nM
- GI50 (SNB-75 CNS): 190 nM
- TGI (SNB-75 CNS): 746 nM
- GI50 (SR leukemia): 362 nM
- TGI (SR leukemia): 1420 nM
- GI50 (SW-620 colon): 346 nM
- TGI (SW-620 colon): 1420 nM
- GI50 (T-47D breast): 222 nM
- TGI (T-47D breast): 1280 nM
- GI50 (TK-10 renal): 413 nM
- TGI (TK-10 renal): 1830 nM
- GI50 (U251 CNS): 242 nM
- TGI (U251 CNS): 1140 nM
- GI50 (UACC-257 melanoma): 275 nM
- TGI (UACC-257 melanoma): 1040 nM
- GI50 (UACC-62 melanoma): 339 nM
- TGI (UACC-62 melanoma): 1320 nM
- GI50 (UO-31 renal): 1340 nM
- TGI (UO-31 renal): 2660 nM
